Like-named read-outs stand apart in the source and are kept apart here.
Tests used:
[1] = molecular target: T1, human organic cation transporter 3 (hOCT3) (Homo sapiens, UniProt O75751); experiment: Histamine incorporation experiment in HEK293 cells expressing hOCT3 (OCT3 inhibition activity); type: cell-based; settings: control curve
T1 construct: expressed in transfected cells; host or cells: HEK293
T1 sequence (O75751 1-556): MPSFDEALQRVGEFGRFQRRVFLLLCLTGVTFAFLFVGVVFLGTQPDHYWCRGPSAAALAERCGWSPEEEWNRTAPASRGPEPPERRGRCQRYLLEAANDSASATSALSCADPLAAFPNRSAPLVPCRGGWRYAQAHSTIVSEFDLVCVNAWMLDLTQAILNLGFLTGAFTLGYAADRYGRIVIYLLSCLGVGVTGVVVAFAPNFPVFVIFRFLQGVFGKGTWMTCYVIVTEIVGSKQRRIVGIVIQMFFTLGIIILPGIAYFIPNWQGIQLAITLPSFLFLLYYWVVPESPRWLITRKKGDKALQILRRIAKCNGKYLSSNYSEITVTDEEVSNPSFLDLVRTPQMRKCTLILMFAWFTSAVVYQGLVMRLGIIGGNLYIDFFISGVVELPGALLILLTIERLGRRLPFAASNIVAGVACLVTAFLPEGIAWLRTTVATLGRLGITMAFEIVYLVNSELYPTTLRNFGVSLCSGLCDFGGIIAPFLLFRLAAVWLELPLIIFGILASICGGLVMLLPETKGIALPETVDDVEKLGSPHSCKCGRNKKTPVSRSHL

[2] = molecular target: T1, human organic cation transporter 3 (hOCT3); experiment: as above; type: cell-based; settings: Compound Concentration 10 μM
Protocol: In order to measure an activity that inhibits OCT3 from incorporating a substrate (OCT3 inhibition activity) for each compound, histamine incorporation experiments as described below were performed.
Histamine incorporation experiments were performed in accordance with a method disclosed in Br J Pharmacol. 2002; 136(6): 829-836. In the experiments, HEK293 cells were used. The HEK293 cell is a human embryonal renal cell strain expressing human organic cation transporter 3 (hOCT3). The HEK 293 cells were inoculated onto 24-well plates at 1.5×10^5 cells/well, and were cultivated overnight in a carbon dioxide incubator. Test substances were dissolved in 100% DMSO solution and then dissolved in HBSS-HEPES solution (buffer solution prepared by dissolving 9.7 g Hank's Balanced Salt, 1.4% sodium bicarbonate 25 mL, and 1M HEPES 25 mL in 940 mL ultra pure water, and by adjusting to pH7.4 with 1M sodium hydroxide). After removing culture media for cell culture, pretreatment was performed for 5 minutes with 1 mL HBSS-HEPES solution. Then, the test substance and [3H]histamine (final concentration 100 nM) were added to the cells and reacted for 1 minute at room temperature. After the reaction was completed, the reaction was stopped by ice-cooled HBSS-HEPES solution, extracellular fluid was aspirated by an aspirator, and then the cells were washed twice with HBSS-HEPES. After washing, the cells were dissolved in 0.5M sodium hydroxide solution. The amount of histamine in the cells was found by measuring a radioactivity in a cell lysis solution by a liquid scintillation counter. Protein content in the cells was measured by Lowry method (J Biol Chem. 1951; 193(1): 265-75) by using the cell lysis solution, and translated into histamine incorporation amount per protein content for each experiment. A histamine incorporation rate (%) in the presence of 30 μM of the test substance was calculated by regarding a histamine incorporation amount in a case of no incorporation inhibitor as 100% (control) of histamine incorporation rate. A value (%) obtained by subtracting the histamine incorporation rate from 100(%) was calculated as an OCT3 inhibition rate (%).
Note that a histamine incorporation rate (%) in the presence of 10 μM of the test substance was calculated by regarding a histamine incorporation amount in a case of no incorporation inhibitor as 100% (control) of histamine incorporation rate. A value (%) obtained by subtracting the histamine incorporation rate from 100(%) was calculated as an OCT3 inhibition rate (%). […]

[3] = various diagnostic methods in clinical trials, WO 01/93863; cited from earlier work
OCT3 = molecular target: T2, OCT3 (Homo sapiens, UniProt O75751); settings: Sata et al., J Pharmacol Exp Ther. 2005, cited from earlier work
T2 sequence (O75751 1-556): T1 sequence (O75751 1-556)

Male ddY-strain mice = experiment: Forced swimming test (akinesis time); type: in vivo, mouse; settings: low dose administered independently: imipramine 4 mg/kg or OCT3 inhibitor 0.25 μl/hr
Excerpt: In the forced swimming test, forced swimming is loaded on a mouse or rat as a test animal in a test tank from which the mouse or rat cannot escape. Then, after an escape behavior of the test animal, an akinesis (a state in which the test animal is floating with only its face out over the surface of the water and without moving legs) is confirmed. When the test animal is put in the test tank again after 24 or more hours later, the akinesis is expressed earlier than the first test. Duration of the akinesis within a predetermined time period (generally about 5 minutes) is reproduced relatively accurately.
Specifically, a test is performed as follows.
Male ddY-strain mice (Japan SLC, Inc.) having body weights of 28 to 33 g are used for an experiment. […] In the first forced swimming test, all of the laboratory mice are made to swim in a glass cylinder (diameter 15.5 cm, depth 17 cm, depth of water 12 cm, temperature of water 25° C.) for 300 seconds, the akinesis time are measured, and the mice are divided into experimental groups (OCT3 inhibitor administration group, positive control group, and negative control group) so that average values of these groups are almost identical. […] After one week from the injection, the mice are made to swim in the cylinder again for 300 seconds, and the akinesis time is measured for each of the mice. […]

Row | IC80 ([1]; HEK293) [µM] | IC50 [1] [µM] | remaining activity at 10 µM ([2]; HEK293, 1 min, no inhibitor = 100%, read-out: Histamine Incorporation Rate to Control (%)) [%] | inhibition at 10 µM ([2]; HEK293, 100% minus histamine incorporation rate) [%] | Compound | antidepressant activity [3] | OCT3 inhibition activity (in words) (OCT3; listed as Famotidine) | OCT3 inhibition activity (in words) (OCT3; listed as famotidine) | average of the akinesis time (Male ddY-strain mice)
1 | 330 | 67.6 | 92.4 | 7.6 | NC(N)=Nc1nc(CSCCC(N)=NS(N)(=O)=O)cs1 [FAMOTIDINE, famotidine, reference compound] | antidepressant activity is confirmed | strong OCT3 inhibition activity | strong OCT3 activity inhibition action | 
2 |  |  |  |  | CN(C)CCCN1c2ccccc2CCc2ccccc21 [imipramine] |  |  |  | about 200 seconds

Source: patent US9745274B2, “Compound, organic cation transporter 3 detection agent, and organic cation transporter 3 activity inhibitor” (SHIN NIPPON BIOMEDICAL LABORATORIES, LTD., priority 2013, dated 2017)
